# Measured values as given in USRE39420E1, “1,2-Diphenylpyrrole derivatives, their preparation and their therapeutic uses” (Sankyo Company, Limited, priority 1996, dated 2006).
# Columns and labels:
# [1] = system: yeast-inflamed pain in rats; experiment: Analgesic effect on yeast-inflamed pain in rats (Randall-Selitto method); type: in vivo, Wistar-Imamichi rats; conditions: Rattus norvegicus, oral, pain threshold 0.5, 1 and 2 hours after administration, read-out: Efficacy Rate (No. of animals in which drug was effective/No. of animals used in test) (converted)
# Experimental: The compound was suspended in 0.5%tragacanth and administered orally at a volume of 5 ml/kg. The control group was administered with 0.5% tragacanth only as a vehicle.
# Wistar-Imamichi rats (males, 5 week old, body weights: 80-100 g) were used in this test.
# The test was conducted in accordance with the method of Winter and Flataker [J. Pharmacol. Exp. Ther. 150, 165-171, (1965)], which is a modification of the original method of Randall and Selitto [Arch. Int. Pharmacodyn. Ther. 111, 405-419, (1957)]. The rats were fasted for 16 hours prior to use. Inflammation was induced by subcutaneous injection of 0.1 ml of a suspension of 20% beer yeast (Sigma) into the right hind footpad of the animal. After 4.5 hours, increasing pressure was applied to the inflamed footpad at a constant speed using an Analgesy meter (Trade mark) (Ugo-Basile Co.).
# First the average of pain threshold values at each time point (0.5, 1, and 2 hr) was calculated in a control group. If a pain threshold value exceeded 2 times the control average value at the same time point even once in the drug-treated groups, then the animal was considered to indicate efficacy. Efficacy rates of the drug were estimated by the evaluation method of Blake [J. Pharm. Pharm. 19, 367-373, (1967)].
# [2] = system: Carrageenan-induced Paw Edema in rats; experiment: Carrageenan-induced paw edema test; type: in vivo, Wistar-Imamichi rats; conditions: Rattus norvegicus, oral, 3 hours after carrageenan, read-out: Inhibition Rate (%)
# Experimental: The same test compounds were subjected to the test as those in the Randall-Selitto test of Experiment 3. Wistar-Imamichi rats (males, 6 week old, body weights: 110-120 g) were used in this test.
# The method of Winter, et al. [Proc. Soc. Exp. Biol. Med. 111, 544-547, (1962)] was slightly modified to perform the test [Sankyo Annual Research Report 39, 77-111, (1989)]. The rats were fasted for 16 hours prior to use. Inflammatory edema was induced by the subcutaneous injection of 0.05 ml of a 1% carrageenan (Viscarin 402) solution into the right hind paw of the animal. The test compounds were administered orally 30 minutes before injection of carrageenan. The volume of the right hind foot was measured with a Plethysmometer (Trade mark) (Ugo-Basile Co.) just before administration of the test compound and 3 hours after injection of carrageenan to determine the edema intensity [(right foot volume after 3 hours/right foot volume before injection)-1].
# gastric mucosa = experiment: Irritative effect on gastric mucosa; type: in vivo, Wistar rats; conditions: oral; dose producing 50% incidence of gastric ulcers, 3.5 hours after dosing
# Experimental: Experiments were performed according to the method described by Jahn and Adrian [Arzneim.-Forsch. 19, 36, (1969)]. Male Wistar rats weighing approximately 120 g were fasted for 16 hours before the experiment. The drugs were administered orally to rats as described in Experiment 3. Three and the half hours after dosing, the animals were killed under ether-anesthesia and the stomachs were placed into 1% of formalin. The stomach was opened by cutting along the greater curvature and the number and length of lesions were counted under a microscope (6.3×10). The ulcerogenicity in each animal was assessed according to Hitchens et. al. [Pharmacologist 9, 242, (1967)]. Incidence was determined as the rate of rats with 4 or more ulcers of more than 0.5 mm length, and UD50's (doses producing 50% incidence) were calculated from the incidence and the dose by probit (=probability unit) method.
Structure (SMILES),responders at 12.5 mg/kg [1] [%],inhibition in vivo at 50 mg/kg [2] [%],UD50 (gastric mucosa) [mg/kg]
"Cc1cc(-c2ccc(S(N)(=O)=O)cc2)n(-c2ccc(C)c(C)c2)c1 [Example 86, 4-Methyl-1-(3,4-dimethylphenyl)-2-(4-sulfamoylphenyl)pyrrole]",100,64,–
"Cc1cc(-c2ccc(Cl)c(Cl)c2)n(-c2ccc(S(N)(=O)=O)cc2)c1 [Example 70, 2-(3,4-Dichlorophenyl)-4-methyl-1-(4-sulfamoylphenyl)pyrrole]",–,–,>100
"COc1ccc(-n2c(-c3ccc(S(N)(=O)=O)cc3)cc(C)c2Cl)cc1 [Example 99, 5-Chloro-1-(4-methoxyphenyl)-4-methyl-2-(4-sulfamoylphenyl)pyrrole]",–,57,–
"COc1ccc(-c2cc(C)cn2-c2ccc(S(=O)(=O)NC(C)=O)cc2)cc1 [Example 82, 1-(4-Acetylaminosulfonylphenyl)-2-(4-methoxyphenyl)-4-methylpyrrole]",100,78,>100
"COc1ccc(-n2c(Cl)ccc2-c2ccc(S(N)(=O)=O)cc2)cc1 [Example 97, 5-Chloro-1-(4-methoxyphenyl)-2-(4-sulfamoylphenyl)pyrrole]",100,63,–
"Cc1cc(-c2ccc(S(N)(=O)=O)cc2)n(-c2ccc(F)cc2F)c1 [Example 75, 1-(2,4-Difluorophenyl)-4-methyl-2-(4-sulfamoylphenyl)pyrrole]",–,57,–
"COc1ccc(-n2c(Br)ccc2-c2ccc(S(N)(=O)=O)cc2)cc1 [Example 98, 5-Bromo-1-(4-methoxyphenyl)-2-(4-sulfamoylphenyl)pyrrole]",–,55,–
"Cc1cc(-c2ccc(S(N)(=O)=O)cc2)n(-c2ccc(S)cc2)c1 [Example 129, 1-(4-Mercaptophenyl)-4-methyl-2-(4-sulfamoylphenyl)pyrrole]",100,62,–
"CCSc1ccc(-n2cc(C)cc2-c2ccc(S(N)(=O)=O)cc2)cc1 [Example 85, 1-(4-Ethylthiophenyl)-4-methyl-2-(4-sulfamoylphenyl)pyrrole]",100,73,–
"COc1ccc(-c2cccn2-c2ccc(S(N)(=O)=O)cc2)cc1 [Example 76, 2-(4-Methoxyphenyl)-1-(4-sulfamoylphenyl)pyrrole]",–,56,>100
"Cc1cc(-c2ccccc2)n(-c2ccc(S(N)(=O)=O)cc2)c1 [Example 77, 4-Methyl-2-phenyl-1-(4-sulfamoylphenyl)pyrrole]",–,–,>100
"CSc1ccc(-c2cc(C)cn2-c2ccc(S(N)(=O)=O)cc2)cc1 [Example 66, 4-Methyl-2-(4-methylthiophenyl)-1-(4-sulfamoylphenyl)pyrrole]",100,–,>100
"COc1ccc(-c2cc(C)cn2-c2ccc(S(N)(=O)=O)cc2)cc1Cl [Example 79, 2-(3-Chloro-4-methoxyphenyl)-4-methyl-1-(4-sulfamoylphenyl)pyrrole]",100,–,>100
"Cc1cc(C)cc(-c2cc(C)cn2-c2ccc(S(N)(=O)=O)cc2)c1 [Example 87, 4-Methyl-2-(3,5-dimethylphenyl)-1-(4-sulfamoylphenyl)pyrrole]",100,–,–
"CCc1cc(-c2ccc(OC)cc2)n(-c2ccc(S(N)(=O)=O)cc2)c1 [Example 64, 4-Ethyl-2-(4-methoxyphenyl)-1-(4-sulfamoylphenyl) pyrrole]",–,60,–
"Cc1ccc(-c2c(C)ccn2-c2ccc(S(N)(=O)=O)cc2)cc1 [Example 17, 3-Methyl-2-(4-methylphenyl)-1-(4-sulfamoylphenyl) pyrrole]",–,67,–
"CC(=O)NS(=O)(=O)c1ccc(-n2cc(C)cc2-c2ccc(C)c(C)c2)cc1 [Example 83, 1-(4-Acetylaminosulfonylphenyl)-2-(3,4-dimethylphenyl)-4-methylpyrrole]",100,70,–
"CC(=O)Sc1ccc(-n2cc(C)cc2-c2ccc(S(N)(=O)=O)cc2)cc1 [Example 130, 1-(4-Acetylthiophenyl)-4-methyl-2-(4-sulfamoylphenyl)pyrrole]",20,73,–
"COc1ccc(-c2cc(C)cn2-c2ccc(S(N)(=O)=O)cc2)cc1C [Example 69, 4-Methyl-2-(4-methoxy-3-methylphenyl)-1-(4-sulfamoylphenyl)pyrrole]",100,55,>100
"Cc1cc(-c2ccc(S(N)(=O)=O)cc2)n(-c2ccc([S+](C)[O-])cc2)c1 (centres unmarked) [Example 96, 4-Methyl-1-(4-methylsulfinylphenyl)-2-(4-sulfamoylphenyl)pyrrole]",–,60,–
"CSc1ccc(-c2c(C)ccn2-c2ccc(S(N)(=O)=O)cc2)cc1 [Example 88, 3-Methyl-2-(4-methylthiophenyl)-1-(4-sulfamoylphenyl)pyrrole]",100,61,–
"COc1ccc(-c2cc(C)cn2-c2ccc(S(N)(=O)=O)cc2)cc1F [Example 71, 2-(3-Fluoro-4-methoxylphenyl)-4-methyl-1-(4-sulfamoylphenyl)pyrrole]",100,–,>100
"NS(=O)(=O)c1ccc(-c2cccn2-c2ccc(F)cc2)cc1 [Example 19, 1-(4-Fluorophenyl)-2-(4-sulfamoylphenyl)pyrrole]",100,65,–
"CSc1ccc(-n2c(Cl)ccc2-c2ccc(S(N)(=O)=O)cc2)cc1 [Example 101, 5-Chloro-1-(4-methylthiophenyl)-2-(4-sulfamoylphenyl)pyrrole]",100,–,–
"Cc1ccc(-c2cc(C)cn2-c2ccc(S(N)(=O)=O)cc2)cc1 [Example 18, 4-Methyl-2-(4-methylphenyl)-1-(4-sulfamoylphenyl) pyrrole]",100,53,–
"CCOc1ccc(-n2c(Cl)ccc2-c2ccc(S(N)(=O)=O)cc2)cc1 [Example 100, 5-Chloro-1-(4-ethoxyphenyl)-2-(4-sulfamoylphenyl) pyrrole]",100,57,–
